Experimental data as given in ChEMBL document CHEMBL1201862, “PubChem BioAssay data set” (2004).
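These data come from cells grown in 96-well plates and exposed to compound for 48 hours at five concentrations. The concentration for 50% growth inhibition is given as GI50.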 Calls of active or inactive are those of the source. Cut-off read from the data, not from the text of the source: active = GI50 up to about 1.1 µM and inactive = higher.

Experiments:
Assay in all cases: NCI anticancer screen, dose series, 48 h
NCI-H23 = system: NCI-H23
SK-MEL-5 = system: SK-MEL-5
786-0 = system: 786-0
M14 = system: M14
HT-29 = system: HT-29
PC-3 = system: PC-3
HCT-15 = system: HCT-15
SK-MEL-2 = system: SK-MEL-2
EKVX = system: EKVX
SN12C = system: SN12C
TK-10 = system: TK-10
NCI-H460 = system: NCI-H460
OVCAR-5 = system: OVCAR-5
U-251 = system: U-251
SW-620 = system: SW-620
NCI-H522 = system: NCI-H522
HCT-116 = system: HCT-116
COLO 205 = system: COLO 205
Hs-578T = system: Hs-578T
SF-539 = system: SF-539

Structure (SMILES)	GI50 (NCI-H23)	GI50 (SK-MEL-5)	GI50 (786-0)	GI50 (M14)	GI50 (HT-29)	GI50 (PC-3)	GI50 (HCT-15)	GI50 (SK-MEL-2)	GI50 (EKVX)	GI50 (SN12C)	GI50 (TK-10)	GI50 (NCI-H460)	GI50 (OVCAR-5)	GI50 (U-251)	GI50 (SW-620)	GI50 (NCI-H522)	GI50 (HCT-116)	GI50 (COLO 205)	GI50 (Hs-578T)	GI50 (SF-539)
O=C(O)c1ccccc1C1c2ccccc2Oc2ccccc21	39.7 µM (inactive)	41.4 µM (inactive)	49.5 µM (inactive)	> 100 µM (inactive)	74.6 µM (inactive)	65.9 µM (inactive)	36.9 µM	23.4 µM (inactive)	49.2 µM (inactive)	46 µM (inactive)	> 100 µM (inactive)	39.9 µM (inactive)	> 100 µM (inactive)	35.2 µM (inactive)	> 100 µM (inactive)	26.8 µM (inactive)	45.3 µM (inactive)	–	–	–
CCOP(=O)(OCC)/C(C#N)=C/c1coc2cc(C)cc(C)c2c1=O	> 100 µM (inactive)	> 100 µM (inactive)	> 100 µM (inactive)	> 100 µM (inactive)	> 100 µM (inactive)	> 100 µM (inactive)	–	> 100 µM (inactive)	> 100 µM (inactive)	> 100 µM (inactive)	–	> 100 µM (inactive)	> 100 µM (inactive)	> 100 µM (inactive)	> 100 µM (inactive)	> 100 µM (inactive)	> 100 µM (inactive)	> 100 µM (inactive)	> 100 µM (inactive)	–
Cc1ccccc1C(=O)c1cc(O)ccc1O	65 µM (inactive)	> 100 µM (inactive)	> 100 µM (inactive)	> 100 µM (inactive)	35.9 µM (inactive)	–	50.1 µM	34.6 µM (inactive)	> 100 µM (inactive)	> 100 µM (inactive)	> 100 µM (inactive)	85.9 µM (inactive)	> 100 µM (inactive)	50.7 µM (inactive)	37.1 µM (inactive)	27.2 µM (inactive)	> 100 µM (inactive)	50.6 µM (inactive)	–	> 100 µM (inactive)
